Test results taken from PubChem BioAssay (NCI).
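GI50: concentration for 50% inhibition of growth. TGI: concentration producing complete growth inhibition.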

How the values were obtained:
Experiment in all cases: NCI-60 cell line screen, 384-well format
SK-OV-3 ovarian = system: SK-OV-3 ovarian
MALME-3M melanoma = system: MALME-3M melanoma
SNB-19 CNS = system: SNB-19 CNS
HT29 colon = system: HT29 colon
MDA-MB-435 melanoma = system: MDA-MB-435 melanoma
MCF7 breast = system: MCF7 breast
RXF 393 renal = system: RXF 393 renal
786-0 renal = system: 786-0 renal
NCI-H460 NSCLC = system: NCI-H460 NSCLC
SNB-75 CNS = system: SNB-75 CNS
A498 renal = system: A498 renal
K-562 leukemia = system: K-562 leukemia
NCI-H23 lung = system: NCI-H23 lung
SF-295 CNS = system: SF-295 CNS
MDA-MB-231 breast = system: MDA-MB-231 breast
SF-268 CNS = system: SF-268 CNS
COLO 205 colon = system: COLO 205 colon
SK-MEL-5 melanoma = system: SK-MEL-5 melanoma
ACHN renal = system: ACHN renal
M14 melanoma = system: M14 melanoma
HS 578T breast = system: HS 578T breast
UACC-257 melanoma = system: UACC-257 melanoma
SW-620 colon = system: SW-620 colon
HOP-62 NSCLC = system: HOP-62 NSCLC
CAKI-1 renal = system: CAKI-1 renal
SF-539 CNS = system: SF-539 CNS
UO-31 renal = system: UO-31 renal

Cc1nc(Nc2n[nH]c3c2CN(C(=O)N[C@H](CN(C)C)c2ccccc2)C3(C)C)c2sccc2n1
GI50 (SK-OV-3 ovarian): 178 nM | TGI (SK-OV-3 ovarian): 8090 nM | GI50 (MALME-3M melanoma): < 10 nM | TGI (MALME-3M melanoma): 1490 nM | GI50 (SNB-19 CNS): 382 nM | TGI (SNB-19 CNS): 12500 nM | GI50 (HT29 colon): 10.8 nM | TGI (HT29 colon): 1750 nM | GI50 (MDA-MB-435 melanoma): < 10 nM | TGI (MDA-MB-435 melanoma): 1670 nM | GI50 (MCF7 breast): < 10 nM | TGI (MCF7 breast): 193 nM | GI50 (RXF 393 renal): 144 nM | TGI (RXF 393 renal): 960 nM | GI50 ([…]-0 renal): 58.1 nM | TGI (786-0 renal): 1920 nM | GI50 (NCI-H460 NSCLC): < 10 nM | TGI (NCI-H460 NSCLC): 1300 nM | GI50 (SNB-75 CNS): 274 nM | TGI (SNB-75 CNS): 1410 nM | GI50 (A498 renal): 30.1 nM | TGI (A498 renal): 2380 nM | GI50 (K-562 leukemia): < 10 nM | TGI (K-562 leukemia): 3390 nM | GI50 (NCI-H23 lung): < 10 nM | TGI (NCI-H23 lung): 214 nM | GI50 (SF-295 CNS): 57.1 nM | TGI (SF-295 CNS): 2290 nM | GI50 (MDA-MB-231 breast): 102 nM | TGI (MDA-MB-231 breast): 1240 nM | GI50 (SF-268 CNS): 118 nM | TGI (SF-268 CNS): 1350 nM | GI50 (COLO 205 colon): < 10 nM | TGI (COLO 205 colon): 193 nM | GI50 (SK-MEL-5 melanoma): < 10 nM | TGI (SK-MEL-5 melanoma): 827 nM | GI50 (ACHN renal): 35.6 nM | TGI (ACHN renal): 3060 nM | GI50 (M14 melanoma): 18.8 nM | TGI (M14 melanoma): 1500 nM | GI50 (HS 578T breast): 93.6 nM | TGI (HS 578T breast): 763 nM | GI50 (UACC-257 melanoma): 19 nM | TGI (UACC-257 melanoma): 632 nM | GI50 (SW-620 colon): < 10 nM | TGI (SW-620 colon): 2210 nM | GI50 (HOP-62 NSCLC): < 10 nM | TGI (HOP-62 NSCLC): 113 nM | GI50 (CAKI-1 renal): 52.2 nM | TGI (CAKI-1 renal): 2790 nM | GI50 (SF-539 CNS): < 10 nM | TGI (SF-539 CNS): 1020 nM | GI50 (UO-31 renal): 1610 nM
